According to patent US20260226417A1, “METHOD FOR INHIBITING AGING OF STEM CELLS” (ENCELL CO., LTD, priority 2023, published 2026):

Experiments:
[1] = test system: control cells (P5), human umbilical cord-derived mesenchymal stem cells; assay: Cytotoxicity by CCK-8 assay, control cells (P5); type: cell-based; settings: 160 μM
[2] = test system: replicative senescence model of human umbilical cord-derived mesenchymal stem cells (P18); assay: β-galactosidase staining, extent of senescence, replicative senescence model (P18); type: cell-based; parameters: dose or concentration left out as unconfirmed
Procedure: Compared to the control cells (P5) in which the extent of senescence was 0.21 % of the total, the extent of senescence in the senescence-induced mesenchymal stem cells (P18) was increased to 42.44% of the total, confirming the progression of replicative senescence (FIGs. 1a and 1b). Specifically, individual cells (5×10^4/well) were suspended in a 6-well plate and stabilized for 24 hours, followed by adding β-galactosidase staining solution and staining for 24 hours, after which the extent of senescence was measured under a microscope.
Therefore, it was confirmed that this concentration was an optimal concentration that inhibited the extent of senescence by inducing apoptosis specifically in the replicative senescence model (P18) without affecting the cytotoxicity of the control cells (P5).

[3] = test system: senescence markers P16 and P21; assay: qRT-PCR of senescence markers P16 and P21 in replicative senescence model (P18); type: cell-based, human; settings: 160 μM, 3 days
Procedure: (§1) In order to verify the anti-senescence efficacy of nervonic acid, the expression levels of senescence-related markers in a control group (P5) and a replicative senescence model (P18) were measured after treatment with nervonic acid (160 μM).
Specifically, qRT-PCR performed in this example is as follows: after treating the replicative senescence model (P18) with nervonic acid for 3 days, total RNA was extracted using Trizol (Invitrogen, MA, USA) according to the method provided by the vendor. After quantifying the extracted total RNA, random hexamer and dNTP were added, and PCR was performed at 65° C. for 5 minutes. 5× SSIV buffer, 100 mM DTT, RNAse OUT, and Superscript IV RT were added and reverse transcription was performed to synthesize cDNA, and then qRT-PCR was performed to measure gene expression, and the expression levels were compared through 2^−ΔΔCt analysis.

[4] = test system: senescence markers P16 and P21; assay: Western blotting of P16 and P21 in replicative senescence model (P18); type: cell-based, human; settings: 160 μM
Procedure: as §1
Specifically, Western blotting performed in this example is as follows: cells were collected, and the cell membrane was broken using RIPA buffer, followed by centrifugation to collect the supernatant. Intracellular proteins were quantified using the Bradford assay (Bio-Rad, USA), and 20 μg of protein for each sample was loaded onto the gel, followed by electrophoresis using SDS. After transferring the protein to a polyvinylidene fluoride (PVDF) membrane, 1× TBST (Tris-buffered saline with 0.1% Tween 20) solution containing 5% skim milk (BD Difco, USA) was added and incubated at room temperature for 1 hour. Thereafter, P16 (1: 1000, Cell Signaling, USA), P21 (1: 1000, Cell Signaling, USA), and β-actin (1:5000; Santa Cruz, USA) antibodies were added and incubated overnight at 4° C. Then, the secondary antibody (anti-rabbit IgG-HRP; ABClon, Korea) was added and incubated at room temperature for one hour. Afterwards, the blots were visualized using ECL (Bio-Rad, USA) and assessed.

[5] = test system: human adipose-derived mesenchymal stem cells (AD-MSCs/passage 18); assay: β-galactosidase staining, senescent AD-MSCs; type: cell-based; settings: AD-MSCs passage 18, 3 days
Text: Human placenta-derived mesenchymal stem cells (pl-mscs) Were Isolated From Placentas Separated according to the previously reported method of Choi et al. (PLOS ONE, (2017) 12 (2): e0172642), umbilical cord blood-derived mesenchymal stem cells (UCB-MSCs) were isolated from the umbilical cord blood separated according to the method of Kim et al. (FEBS Letters, (2010) 584:3601-3608), and adipose tissue-derived mesenchymal stem cells (AD-MSCs) were isolated from adipose tissue separated according to the previously reported method of Palumbo et al. (Int. J. Mol. Sci. (2018) 19:1987).
Each of the obtained mesenchymal stem cells was subcultured in aMEM (a-modified Minimum Essential Media) containing 10% fetal bovine serum (FBS) and 0.5% gentamicin (10 mg/ml).
The replicative senescence models of human adipose-derived mesenchymal stem cells (AD-MSCs/passage 18), human bone marrow-derived mesenchymal stem cells (BM-MSCs/passage 15), human umbilical cord blood-derived mesenchymal stem cells (UCB-MSCs/passage 16), and human placenta-derived mesenchymal stem cells (PL-MSCs/passage 18) established as described above were treated with nervonic acid for 3 days, and β-galactosidase staining was performed to observe the extent of senescence.

**Q.** Which results are given for `CCCCCCCC/C=C\CCCCCCCCCCCCCC(=O)O` [nervonic acid]?
**A.** change in cell viability [1]: no change in cell viability; extent of senescence (β-galactosidase staining), fold decrease compared to before treatment [2]: 0.41±0.04 fold; P16 mRNA level, fold compared to before treatment [3]: 0.78±0.01 fold; P21 mRNA level, fold compared to before treatment [3]: 0.82±0.02 fold; P16 protein expression level, fold compared to before treatment [4]: 0.65±0.07 fold; P21 protein expression level, fold compared to before treatment ([4]; not significant): 0.82±0.07 fold; progression of senescence (β-galactosidase staining) compared to control group (DMSO) [5]: progression of senescence was significantly inhibited
